Activity and EC50 data for nine molecules are collected here from ChEMBL document CHEMBL5050840, “3-(1-oxoisoindolin-2-yl)piperidine-2,6-dione derivatives and uses thereof” (2021).

By EC50 is commonly meant the concentration giving half of the maximal effect.

The source made the active and inactive calls. The rule behind the calls is not given here.

Test [1] has as its system PBMC. The experiment in a line: Effect of compound on human PBMCs at 10 uM assessed as fold increase in IL-2 producing cells. The format is functional, cell-based.
The subject of test [2] is PBMC. Description: Effect of compound on human PBMCs at 10 uM assessed as decrease in CD4+ T cells proliferation. Format: functional, cell-based.
A short description of test [3]: Induction of IKZF2 degradation in human GripTite 293 MSR cells assessed as reduction in IKZF2 level measured by PathHunter assay. The format is cell-based.
Test [4] relates to GripTite 293 MSR. Description: Induction of IKZF2 degradation in human GripTite 293 MSR cells at 10 uM assessed as reduction in IKZF2 level measured by PathHunter assay relative to control. The format is cell-based. On the set-up: scale not given: the % may be the effect or the level left.

With `O=C1CCC(N2Cc3cc(C4CCN(Cc5ccccc5)CC4)ccc3C2=O)C(=O)N1` (stereo not given), the outcome in test [1] and in test [2] was Active.
Turning to `CC(c1ccccc1)N1CCC(c2ccc3c(c2)CN(C2CCC(=O)NC2=O)C3=O)CC1` (single isomer, unassigned), in test [3], the EC50 turned out to be 9 nM.
As to `CN1CC=C(c2ccc3c(c2)CN(C2CCC(=O)NC2=O)C3=O)CC1` (stereo not given), in test [4], the Activity is 35%.
For the molecule `O=C1CCC(N2Cc3cc(C4CCCN(Cc5ccccc5)CC4)ccc3C2=O)C(=O)N1` (single isomer, unassigned; form 1), the EC50 in test [3] was 170 nM.
Still for that read-out and setting: the result for `O=C1CCC(N2Cc3cc(C4CCCN(Cc5ccccc5)CC4)ccc3C2=O)C(=O)N1` (single isomer, unassigned; form 2) reads 210 nM; that for `O=C1CCC(N2Cc3cc(C4CCN([C@@H](CO)c5ccccc5)CC4)ccc3C2=O)C(=O)N1` (single isomer, unassigned), 590 nM.
As to `C[C@H](c1ccccc1)N1CCC(c2ccc3c(c2)CN(C2CCC(=O)NC2=O)C3=O)CC1` (single isomer, unassigned), the EC50 in test [3] is 17 nM.
On the same count and under the same terms, under `O=C1CCC(N2Cc3cc(C4CCN(C(CO)c5ccccc5)CC4)ccc3C2=O)C(=O)N1` (single isomer, unassigned) stands 850 nM; under `CC(c1ccccc1)N1CCC(c2ccc3c(c2)CN(C2CCC(=O)NC2=O)C3=O)CC1` (racemic), 7 nM.
